Marks after values point to notes of the source that are not given here.
Tested on: T-iPS-T cells
Assay: Number of viable T-iPS-T cells under feeder-free culture (CD3/CD28 Dynabeads, Cell Count Reagent SF, absorbance 450 nm/650 nm)
Assay type: cell-based, human
Settings: T-iPS-T cells after 1st expansion, 6 days, DMSO control 0.225 ± 0.017
Experimental: T-iPS-T cells (1,500 cells/well) after 1st expansion were seeded and cultured in RPMI-1640 medium (SIGMA, R8758) supplemented with 15% FBS (CORNING, 35-076-CV, 35076104R), 1% PSG (SIGMA, G1146), PAA (50 μg/mL, Nacalai Tesque, 03420-52), ITS-G, IL-7 (5 ng/mL), IL-12 (50 ng/mL), IL-15 (5 ng/mL), IL-18 (50 ng/mL), IL-21 (20 ng/mL), and z-VAD-fmk (10 μM). The cells were stimulated by adding CD3/CD28 Dynabeads (Gibco, 11131D, the “Dynabeads” is a registered trademark) (4,500 beads/well) thereto, and 1,080 compounds [MedChemExpress, Apoptosis Compound Library (HY-L003), Cell Cycle/DNA Damage Compound Library (HY-L004), JAK/STAT Compound Library (HY-L008), MAPK Compound Library (HY-L010), NF-kappaB Compound Library (HY-L014), PI3K/Akt/mTOR Compound Library (HY-L015), and Wnt/Hedgehog/Notch Compound Library (HY-L020)] were added thereto (one type per well) at a final concentration of 1 μM, and then, the cells were cultured at 37° C. under 5% CO2.
DMSO (0.1%) that is a solvent for the compound was used as a control. After 6 days, the number of viable cells was measured using Cell Count Reagent SF (Nacalai Tesque, 07553) and a microplate reader (SoftMax Pro 5.X, Molecular Devices, 450 nm/650 nm).
A calibration curve for cell number was set as follows. When measuring the number of viable cells, 12-point serial dilution was performed for the same cells as those used in the screening, and the cells were seeded (0 to 1,536,000 cells/well) in RPMI-1640 medium supplemented with 15% FBS, 1% PSG, PAA, ITS-G, IL-7 (5 ng/mL) and IL-15 (5 ng/mL). The number of viable cells was measured together with the screening samples, and a calibration curve for WST-8 assay was formed.
In order to further evaluate the results obtained in Example 4, reproducibility was evaluated. As a method therefor, the same method as in Example 4 was used to carry out culturing and evaluation. As compounds, 20 compounds were selected and used among the compounds used in Example 4 including berbamine, and DMSO (0.1%) that is a solvent for the compound was used as a control. Note that in a statistical analysis, a Student's t-test was used (*: p<0.05).
The effect of a berbamine derivative on the proliferation of T cells was verified. As a method therefor, T-iPS-T cells after 1st expansion were cultured in the same manner as in Example 4, and berbamine (BBM) or each of 13 types of derivatives [BBMD1 to 13, Hebei Sundia MediTech Company Ltd.] was added thereto (one type per well) at a final concentration of 0.1 nM, 1 nM, 10 nM, 100 nM, or 1 μM, and then, the cells were cultured at 37° C. under 5% CO2. DMSO (0.1%) that is a solvent for the compound was used as a control.
After culturing for 6 days, the number of viable cells was measured using Cell Count Reagent SF (Nacalai Tesque, 07553) and a microplate reader (SoftMax Pro 5. X, Molecular Devices, 450 nm/650 nm), and the OD value was used as data. Note that in a statistical analysis, a Student's t-test was used (*: p<0.05). 1.

SMILES	number of viable cells (OD value) (0.1 nM)	number of viable cells (OD value) (1 nM)	number of viable cells (OD value) (10 nM)	number of viable cells (OD value) (100 nM)	number of viable cells (OD value) (1 μM)
COc1cc2c3cc1Oc1c(OC)c(OC)cc4c1C(Cc1ccc(OCCCN)c(c1)Oc1ccc(cc1)CC3N(C)CC2)N(C)CC4 (stereo not shown) [BBMD9]	0.264 ± 0.030	0.255 ± 0.004 *	0.221 ± 0.017^	0.268 ± 0.020 *	0.328 ± 0.016**
COc1cc2c3cc1Oc1c(OC)c(OC)cc4c1C(Cc1ccc(OC(=O)c5ccc(Br)cc5)c(c1)Oc1ccc(cc1)CC3N(C)CC2)N(C)CC4 (stereo not shown) [BBMD6]	0.248 ± 0.019	0.248 ± 0.016	0.290 ± 0.023 *	0.472 ± 0.077 **	0.208 ± 0.004
COc1cc2c3cc1Oc1c(OC)c(OC)cc4c1C(Cc1ccc(OCCCNC(=O)c5cscn5)c(c1)Oc1ccc(cc1)CC3N(C)CC2)N(C)CC4 (stereo not shown) [BBMD12]	0.185 ± 0.072	0.234 ± 0.027	0.235 ± 0.010^	0.257 ± 0.008 *	0.561 ± 0.035 ***
COc1cc2c3cc1Oc1c(OC)c(OC)cc4c1C(Cc1ccc(OC(=O)CCNC(=O)OC(C)(C)C)c(c1)Oc1ccc(cc1)CC3N(C)CC2)N(C)CC4 (stereo not shown) [BBMD8]	0.268 ± 0.022 *	0.227 ± 0.028	0.261 ± 0.029^	0.326 ± 0.051 *	0.462 ± 0.027 ***
COc1cc2c3cc1Oc1c(OC)c(OC)cc4c1C(Cc1ccc(OC(=O)c5cc6ccccc6[nH]5)c(c1)Oc1ccc(cc1)CC3N(C)CC2)N(C)CC4 (stereo not shown) [BBMD5]	0.246 ± 0.001	0.245 ± 0.016	0.285 ± 0.032 *	0.477 ± 0.064 **	0.186 ± 0.001
COc1cc2c3cc1Oc1c(OC)c(OC)cc4c1C(Cc1ccc(OCc5ccc([N+](=O)[O-])cc5)c(c1)Oc1ccc(cc1)CC3N(C)CC2)N(C)CC4 (stereo not shown) [BBMD3]	0.245 ± 0.013	0.298 ± 0.021 *	0.325 ± 0.077^	0.581 ± 0.025 ****	0.195 ± 0.002
COc1cc2c3cc1Oc1c(OC)c(OC)cc4c1C(Cc1ccc(OC(=O)c5ccccc5)c(c1)Oc1ccc(cc1)CC3N(C)CC2)N(C)CC4 (stereo not shown) [BBMD13]	0.253 ± 0.022	0.292 ± 0.001 **	0.260 ± 0.011 *	0.412 ± 0.085 *	0.288 ± 0.041
COc1ccc(C(=O)NCCCOc2ccc3cc2Oc2ccc(cc2)CC2c4cc(c(OC)cc4CCN2C)Oc2c(OC)c(OC)cc4c2C(C3)N(C)CC4)cc1 (stereo not shown) [BBMD10]	0.255 ± 0.013	0.274 ± 0.007 **	0.295 ± 0.023 *	0.494 ± 0.038 ***	0.301 ± 0.008 **
COc1cc2c3cc1Oc1c(OC)c(OC)cc4c1C(Cc1ccc(OS(=O)(=O)c5ccccc5)c(c1)Oc1ccc(cc1)CC3N(C)CC2)N(C)CC4 (stereo not shown) [BBMD1]	0.257 ± 0.024	0.268 ± 0.009 *	0.289 ± 0.033 *	0.415 ± 0.039 **	0.529 ± 0.101 **
COc1cc2c3cc1Oc1c(OC)c(OC)cc4c1C(Cc1ccc(OCCCNC(=O)c5ccc(-c6ccc(C=O)cc6)cc5)c(c1)Oc1ccc(cc1)CC3N(C)CC2)N(C)CC4 (stereo not shown) [BBMD11]	0.270 ± 0.099	0.242 ± 0.046	0.300 ± 0.081^	0.425 ± 0.079 *	0.239 ± 0.076
COc1cc2c3cc1Oc1c(OC)c(OC)cc4c1C(Cc1ccc(CCCCN5CCCC5)c(c1)Oc1ccc(cc1)CC3N(C)CC2)N(C)CC4 (stereo not shown) [BBMD7]	0.230 ± 0.018	0.266 ± 0.013 *	0.258 ± 0.024^	0.346 ± 0.041 **	0.550 ± 0.026 ****
COc1cc2c3cc1Oc1c(OC)c(OC)cc4c1C(Cc1ccc(OC(=O)C(C)(C)C)c(c1)Oc1ccc(cc1)CC3N(C)CC2)N(C)CC4 (stereo not shown) [BBMD4]	0.234 ± 0.024	0.245 ± 0.037	0.286 ± 0.019 *	0.470 ± 0.023 ***	0.470 ± 0.053 **
COc1cc2c3cc1Oc1c(OC)c(OC)cc4c1C(Cc1ccc(CCCCBr)c(c1)Oc1ccc(cc1)CC3N(C)CC2)N(C)CC4 (stereo not shown) [BBMD2]		0.269 ± 0.059	0.295 ± 0.028 *	0.437 ± 0.059 **	0.493 ± 0.036 ***
